Reference: patent publication US8809348B2, “6-arylmethyl substituted pyrazolo[3,4-d]pyrimidines” (Boehringer Ingelheim International GmbH, priority 2003, dated 2014)
pIC50: −log10 of the molar value. Counter-ions that a name gives are not always drawn.

Test system: not given
Experiment: not given
Details: not given

melting point [°C]	Structure (SMILES)
215	Cc1ccccc1-n1ncc2c(=O)[nH]c(Cc3cccc(Cl)c3)nc21 (as salt: sodium) [Example 16, 6-(3-Chlorobenzyl)-1-(2-methylphenyl)-1,5-dihydro-4H-pyrazolo[3,4-d]pyrimidin-4-one]
162	Cc1ccccc1-n1ncc2c(=O)[nH]c(Cc3ccccn3)nc21 (as salt: sodium) [Example 17, 1-(2-Methylphenyl)-6-(2-pyridinylmethyl)-1,5-dihydro-4H-pyrazolo[3,4-d]pyrimidin-4-one]
208	CCc1ccccc1-n1ncc2c(=O)[nH]c(Cc3cccc(Cl)c3)nc21 (as salt: sodium) [Example 18, 6-(3-Chlorobenzyl)-1-(2-ethylphenyl)-1,5-dihydro-4H-pyrazolo[3,4-d]pyrimidin-4-one]
152	O=c1[nH]c(Cc2cccc(Cl)c2)nc2c1cnn2-c1ccccc1C(F)(F)F (as salt: sodium) [Example 19, 6-(3-Chlorobenzyl)-1-(2-trifluoromethylphenyl)-1,5-dihydro-4H-pyrazolo[3,4-d]pyrimidin-4-one]
197	O=c1[nH]c(Cc2cccc(Cl)c2)nc2c1cnn2-c1ccccc1F (as salt: sodium) [Example 20, 6-(3-Chlorobenzyl)-1-(2-fluorophenyl)-1,5-dihydro-4H-pyrazolo[3,4-d]pyrimidin-4-one]
188	O=c1[nH]c(Cc2cccc(Cl)c2)nc2c1cnn2-c1ccccc1Cl (as salt: sodium) [Example 21, 6-(3-Chlorobenzyl)-1-(2-chlorophenyl)-1,5-dihydro-4H-pyrazolo[3,4-d]pyrimidin-4-one]
230	O=c1[nH]c(Cc2cccc(Cl)c2)nc2c1cnn2-c1ccccn1 (as salt: sodium) [Example 22, 6-(3-Chlorobenzyl)-1-(2-pyridinyl)-1,5-dihydro-4H-pyrazolo[3,4-d]pyrimidin-4-one]
196	COc1ccccc1-n1ncc2c(=O)[nH]c(Cc3cccc(Cl)c3)nc21 (as salt: sodium) [Example 23, 6-(3-Chlorobenzyl)-1-(2-methoxyphenyl)-1,5-dihydro-4H-pyrazolo[3,4-d]pyrimidin-4-one]

Molecular target: T1, PDE9A (Homo sapiens, UniProt O76083)
Experiment: not given
Details: concentrations of up to 100 μM; cited from earlier work

T1 sequence (O76083 whole entry): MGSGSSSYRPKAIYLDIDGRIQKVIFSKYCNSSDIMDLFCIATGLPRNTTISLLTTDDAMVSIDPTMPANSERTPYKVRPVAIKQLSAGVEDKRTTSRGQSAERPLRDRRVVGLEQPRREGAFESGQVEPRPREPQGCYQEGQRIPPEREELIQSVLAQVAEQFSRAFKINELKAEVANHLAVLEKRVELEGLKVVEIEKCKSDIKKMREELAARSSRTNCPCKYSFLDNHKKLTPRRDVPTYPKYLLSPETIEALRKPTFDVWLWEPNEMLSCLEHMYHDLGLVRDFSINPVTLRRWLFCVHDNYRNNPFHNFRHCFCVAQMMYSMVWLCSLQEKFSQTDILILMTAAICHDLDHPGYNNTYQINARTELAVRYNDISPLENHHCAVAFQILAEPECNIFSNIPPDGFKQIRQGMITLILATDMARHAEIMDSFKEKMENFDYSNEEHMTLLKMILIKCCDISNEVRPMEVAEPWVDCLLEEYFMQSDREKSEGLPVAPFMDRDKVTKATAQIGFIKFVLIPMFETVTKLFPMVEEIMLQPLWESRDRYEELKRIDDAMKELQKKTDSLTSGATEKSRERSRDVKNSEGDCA

Structure (SMILES)	inhibition on the isolated enzyme
CC(C)Cn1c(=O)n(C)c(=O)c2[nH]cnc21 [IBMX]	no inhibition
CC(=O)Nc1ccc(-c2c[nH]c(=O)cn2)cc1 [SKF94120]	no inhibition
OCCN(CCO)c1nc(N2CCCCC2)c2nc(N(CCO)CCO)nc(N3CCCCC3)c2n1 [dipyridamole]	no inhibition
COc1ccc(C2CNC(=O)C2)cc1OC1CCCC1 (stereo not drawn) [rolipram]	no inhibition
CCOC(=O)C1=C[C@]2(CC)CCCN3CCc4c(n1c1ccccc41)[C@@H]32 [vinpocetine]	no inhibition

Molecular target: T1, PDE9A
Experiment: PDE inhibition: recombinant PDE9A scintillation proximity assay
Format: biochemical
Set-up: made in house; host or cells: Sf9 cells (pFASTBAC baculovirus expression system)
Details: inhibiting effect on PDE9A, recombinant enzyme expressed in Sf9 cells, [8-3H]cGMP substrate
From the text: Recombinant PDE1C (GenBank/EMBL Accession Number: NM_005020, Loughney et al. J. Biol. Chem. 1996 271, 796-806), PDE2A (GenBank/EMBL Accession Number: NM_002599, Rosman et al. Gene 1997 191, 89-95), PDE3B (GenBank/EMBL Accession Number: NM_000922, Miki et al. Genomics 1996, 36, 476-485), PDE4B (GenBank/EMBL Accession Number: NM_002600, Obernolte et al. Gene. 1993, 129, 239-247), PDE5A (GenBank/EMBL Accession Number: NM_001083, Loughney et al. Gene 1998, 216, 139-147), PDE7B (GenBank/EMBL Accession Number: NM_018945, Hetman et al. Proc. Natl. Acad. Sci. U.S.A. 2000, 97, 472-476), PDE8A (GenBank/EMBL Accession Number: AF 056490, Fisher et al. Biochem. Biophys. Res. Commun. 1998 246, 570-577), PDE9A (Fisher et al., J. Biol. Chem., 1998, 273 (25): 15559-15564), E10A (GenBank/EMBL Accession Number: NM_06661, Fujishige et al. J Biol Chem. 1999, 274, 18438-45), PDE11A (GenBank/EMBL Accession Number: NM_016953, Fawcett et al. Proc. Natl. Acad. Sci. 2000, 97, 3702-3707) were expressed in Sf9 cells with the aid of the pFASTBAC baculovirus expression system (GibcoBRL).
The test substances are dissolved in 100% DMSO and serially diluted to determine their in vitro effect on PDE 9A. Typically, serial dilutions from 200 μM to 1.6 μM are prepared (resulting final concentrations in the assay: 4 μM to 0.032 μM). 2 μL portions of the diluted substance solutions are introduced into the wells of microtiter plates (Isoplate; Wallac Inc., Atlanta, Ga.). Then 50 μL of a dilution of the PDE9A preparation described above are added. The dilution of the PDE9A preparation is chosen so that less than 70% of the substrate is converted during the subsequent incubation (typical dilution: 1:10000; dilution buffer: 50 mM Tris/HCl pH 7.5, 8.3 mM MgCl2, 1.7 mM EDTA, 0.2% BSA). The substrate, [8-^3H] guanosine 3′,5′-cyclic phosphate (1 μCi/μL; Amersham Pharmacia Biotech., Piscataway, N.J.) is diluted 1:2000 with assay buffer (50 mM Tris/HCl pH 7.5, 8.3 mM MgCl2, 1.7 mM EDTA) to a concentration of 0.0005 μCi/μL. The enzyme reaction is finally started by adding 50 μL (0.025 μCi) of the diluted substrate. The assay mixtures are incubated at room temperature for 60 min and the reaction is stopped by adding 25 μl of a PDE9A inhibitor (e.g. the inhibitor from preparation example 1, final concentration 10 μM) dissolved in assay buffer. Immediately thereafter, 25 μL of a suspension containing 18 mg/mL Yttrium Scintillation Proximity Beads (Amersham Pharmacia Biotech., Piscataway, N.J.) are added. […] The plates are then measured for 30 s per well in a Microbeta scintillation counter (Wallac Inc., Atlanta, Ga.). IC50 values are determined from the graphical plot of the substance concentration versus the percentage inhibition. […]

pIC50	Structure (SMILES)
7.30	Cc1cccc(-n2ncc3c(=O)[nH]c(Cc4cccc(Cl)c4)nc32)c1C [Example 2, 6-(3-Chlorobenzyl)-1-(2,3-dimethylphenyl)-1,5-dihydropyrazolo[3,4-d]pyrimidin-4-one]
7.19	O=c1[nH]c(Cc2cccc(Cl)c2)nc2c1cnn2-c1c(Cl)cccc1Cl [Example 4, 6-(3-Chlorobenzyl)-1-(2,6-dichlorophenyl)-1,5-dihydropyrazolo[3,4-d]pyrimidin-4-one]
> 7.52	Cc1ccccc1-n1ncc2c(=O)[nH]c(Cc3ccccc3Br)nc21 [Example 9, 6-(2-Bromobenzyl)-1-(2-methylphenyl)-1,5-dihydropyrazolo[3,4-d]pyrimidin-4-one]
> 7.52	O=c1[nH]c(Cc2cccc(Cl)c2)nc2c1cnn2-c1ccccc1Cl [Example 21, 6-(3-Chlorobenzyl)-1-(2-chlorophenyl)-1,5-dihydro-4H-pyrazolo[3,4-d]pyrimidin-4-one]

Molecular target: T2, Murine PDE9A (Mus musculus, UniProt O70628)
T2 sequence (O70628 1-534): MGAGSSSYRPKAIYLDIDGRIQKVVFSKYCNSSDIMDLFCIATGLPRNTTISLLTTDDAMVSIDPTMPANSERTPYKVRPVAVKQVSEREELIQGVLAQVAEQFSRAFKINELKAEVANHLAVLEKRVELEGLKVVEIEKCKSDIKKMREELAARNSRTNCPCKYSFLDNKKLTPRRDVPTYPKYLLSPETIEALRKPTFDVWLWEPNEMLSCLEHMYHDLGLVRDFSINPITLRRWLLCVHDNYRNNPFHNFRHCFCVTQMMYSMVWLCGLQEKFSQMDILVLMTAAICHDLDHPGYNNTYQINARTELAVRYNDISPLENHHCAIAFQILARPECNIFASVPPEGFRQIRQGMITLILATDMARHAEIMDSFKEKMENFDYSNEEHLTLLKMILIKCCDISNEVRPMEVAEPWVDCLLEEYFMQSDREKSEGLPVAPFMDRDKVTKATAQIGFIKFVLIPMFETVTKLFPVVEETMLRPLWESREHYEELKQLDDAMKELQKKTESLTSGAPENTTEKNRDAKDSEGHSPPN
Experiment: not given
Details: concentrations below 200 μM; cited from earlier work

Structure (SMILES)	inhibition of murine PDE9A
CC(C)Cn1c(=O)n(C)c(=O)c2[nH]cnc21 [IBMX]	not inhibited
